Laboratory results as given in patent US11850280B1 (priority 2020, dated 2023).

Details: in vivo

For Ivermectin, the “blood plasma levels versus dosage” value was “dose-response relationship”.
